Experimental data: PMC12396409, “Screening and hit evaluation of a microbial metabolite library against the pathogenic Plasmodium falciparum and Toxoplasma gondii parasites” (International Journal for Parasitology: Drugs and Drug …, 2025)
Read-outs that look alike come from different tables or passages of the source. *1 amine or outer side, *2 acyl side, *3 side chain or, on linkers, in order; H or OH if unused. Where a SMILES comes first, the peptide text is derived from it. Bridges are numbered along the chain shown (N, C = ends). Roman numbers before positions name the chains, in order. [ ]: non-standard residue; d: D form. Actinocin(9to1) = Cc1c2oc3c(C)ccc(C(=O)[*:1])c3nc-2c(C(=O)[*:2])c(N)c1=O; NMeV = CN[C@H](C(=O)O)C(C)C; Sar = CNCC(=O)O

Columns and labels:
[1] = system: P. falciparum 3D7 parasites; assay: P. falciparum growth inhibition assay, 1-cycle (72 h treatment), SYBR DNA staining (library screen at 2 μg/mL and dose-response); type: cell-based, Plasmodium falciparum; settings: for activity at 2 µg/mL: Plasmodium falciparum
[2] = system: T. gondii RH strain (RH-Tub-eYFP) tachyzoites; assay: microbe, parasite or virus in culture; type: cell-based, Toxoplasma gondii
[3] = system: P. falciparum 3D7 parasites; assay: P. falciparum growth inhibition assay, 2-cycle (120 h treatment), delayed-death screen and dose-response; type: cell-based, Plasmodium falciparum; settings: for activity at 2 µg/mL: Plasmodium falciparum
[4] = 3D7, P. falciparum, 72 h, screen at 2 μg/mL, replicate 1, read-out: Pf_72h_%Growth_Rep1
[5] = 3D7, P. falciparum, 72 h, screen at 2 μg/mL, replicate 2, read-out: Pf_72h_%Growth_Rep2
[6] = Toxoplasma gondii, 72 h, T. gondii, 72 h, screen at 2 μg/mL, replicate 1; read-out: Tg_72h_%Growth_Rep1
[7] = Toxoplasma gondii, 72 h, T. gondii, 72 h, screen at 2 μg/mL, replicate 2; read-out: Tg_72h_%Growth_Rep2
[8] = 3D7, P. falciparum, 120 h, screen at 2 μg/mL, replicate 1, read-out: Pf_120h_%Growth_Rep1
[9] = 3D7, P. falciparum, 120 h, screen at 2 μg/mL, replicate 2, read-out: Pf_120h_%Growth_Rep2
[10] = 3D7, library screen at 2 μg/mL, 72 h, % growth, replicate 1, read-out: Pf_72h_%Growth_Rep1
[11] = 3D7, library screen at 2 μg/mL, 72 h, % growth, replicate 2, read-out: Pf_72h_%Growth_Rep2
[12] = 3D7, library screen at 2 μg/mL, 120 h, % growth, replicate 1, read-out: Pf_120h_%Growth_Rep1
[13] = 3D7, library screen at 2 μg/mL, 120 h, % growth, replicate 2, read-out: Pf_120h_%Growth_Rep2
[14] = library screen at 2 μg/mL, 72 h, % growth, replicate 1
[15] = library screen at 2 μg/mL, 72 h, % growth, replicate 2

O=C1C=CC(=O)c2c(O)cccc21 [BIA-J1739]
Pf_72h_%Growth_Rep1 ([1]; P. falciparum 3D7, 72 h, library screen at 2 μg/mL, % growth, replicate 1): 80.59% | Pf_72h_%Growth_Rep2 ([1]; P. falciparum 3D7, 72 h, library screen at 2 μg/mL, % growth, replicate 2): 97.69% | Tg_72h_%Growth_Rep1 ([2]; T. gondii RH, 72 h, library screen at 2 μg/mL, % growth, replicate 1): 123.29% | Tg_72h_%Growth_Rep2 ([2]; T. gondii RH, 72 h, library screen at 2 μg/mL, % growth, replicate 2): 97.98% | Pf_120h_%Growth_Rep1 ([3]; P. falciparum 3D7, 120 h, library screen at 2 μg/mL, % growth, replicate 1): 84.54% | Pf_120h_%Growth_Rep2 ([3]; P. falciparum 3D7, 120 h, library screen at 2 μg/mL, % growth, replicate 2): 95.25%

C=C(CC[C@]12O[C@H](C(=O)O)[C@@](O)(C(=O)O)[C@](C(=O)O)(O1)[C@H](OC(=O)/C=C/[C@@H](C)C[C@@H](C)CC)[C@H]2O)[C@@H](OC(C)=O)[C@H](C)Cc1ccccc1 [Zaragozic acid A]
activity at 2 µg/mL [1, 4]: 92.7% | activity at 2 µg/mL [1, 5]: 117% | percent parasite growth at 2 µg/mL [2, 6]: 122% | percent parasite growth at 2 µg/mL [2, 7]: 82.3% | activity at 2 µg/mL [3, 8]: 104% | activity at 2 µg/mL [3, 9]: 107%

CC[C@H](C)C(=O)[C@@H](C)C1=CC(=O)C2=C(O[C@]3(C)CC[C@H]4O[C@@H](C(C)(C)O)CC[C@]4(C)[C@H]3C2)C1=O [Cochlioquinone B]
activity at 2 µg/mL [1, 4]: 61.4% | activity at 2 µg/mL [1, 5]: 52.9% | percent parasite growth at 2 µg/mL [2, 6]: 110% | percent parasite growth at 2 µg/mL [2, 7]: 83.8% | activity at 2 µg/mL [3, 8]: 47% | activity at 2 µg/mL [3, 9]: 44.2%

N#Cc1cn([C@@H]2O[C@H](CO)[C@@H](O)[C@H]2O)c2ncnc(N)c12 [Toyocamycin]
activity at 2 µg/mL ([1]; 3D7, 72 h, P. falciparum, 72 h, screen at 2 μg/mL, replicate 1, read-out: Pf_72h_%Growth_Rep1): 2.78% | activity at 2 µg/mL ([1]; 3D7, 72 h, P. falciparum, 72 h, screen at 2 μg/mL, replicate 2, read-out: Pf_72h_%Growth_Rep2): 4.02% | percent parasite growth at 2 µg/mL [2, 6]: 0.78% | percent parasite growth at 2 µg/mL [2, 7]: 1.19% | activity at 2 µg/mL ([3]; 3D7, 120 h, P. falciparum, 120 h, screen at 2 μg/mL, replicate 1, read-out: Pf_120h_%Growth_Rep1): 25.6% | activity at 2 µg/mL ([3]; 3D7, 120 h, P. falciparum, 120 h, screen at 2 μg/mL, replicate 2, read-out: Pf_120h_%Growth_Rep2): 6.44%

Cc1c2oc3c(C)ccc(C(=O)N[C@@H]4C(=O)N[C@H](C(C)C)C(=O)N5CCC[C@H]5C(=O)N(C)CC(=O)N(C)[C@@H](C(C)C)C(=O)O[C@@H]4C)c3nc-2c(C(=O)N[C@@H]2C(=O)N[C@H](C(C)C)C(=O)N3CCC[C@H]3C(=O)N(C)CC(=O)N(C)[C@@H](C(C)C)C(=O)O[C@@H]2C)c(N)c1=O [Actinomycin D] (I: T[dV]P[Sar][NMeV] / II: T[dV]P[Sar][NMeV]; ester I:1-I:C, II:1-II:C; linker I:N-II:N via Actinocin(9to1))
activity at 2 µg/mL [1, 10]: 2.91% | activity at 2 µg/mL [1, 11]: 5.02% | percent parasite growth at 2 µg/mL ([2]; Toxoplasma gondii; library screen at 2 μg/mL, 72 h, % growth, replicate 1; read-out: Tg_72h_%Growth_Rep1): 2.02% | percent parasite growth at 2 µg/mL ([2]; Toxoplasma gondii; library screen at 2 μg/mL, 72 h, % growth, replicate 2; read-out: Tg_72h_%Growth_Rep2): 0.47% | activity at 2 µg/mL [3, 12]: 7.65% | activity at 2 µg/mL [3, 13]: -5.71%

CC[C@@H]1/C=C(\C)C[C@H](C)C[C@H](OC)[C@H]2O[C@@](O)(C(=O)C(=O)N3CCCC[C@H]3C(=O)O[C@H](/C(C)=C/[C@@H]3CC[C@@H](O)[C@H](OC)C3)[C@H](C)[C@@H](O)CC1=O)[C@H](C)C[C@@H]2OC [Ascomycin]
activity at 2 µg/mL [1, 10]: 44.9% | activity at 2 µg/mL [1, 11]: 50.6% | percent parasite growth at 2 µg/mL ([2]; Toxoplasma gondii, 72 h, library screen at 2 μg/mL, 72 h, % growth, replicate 1; read-out: Tg_72h_%Growth_Rep1): 79.9% | percent parasite growth at 2 µg/mL ([2]; Toxoplasma gondii, 72 h, library screen at 2 μg/mL, 72 h, % growth, replicate 2; read-out: Tg_72h_%Growth_Rep2): 79.4% | activity at 2 µg/mL [3, 12]: 70.5% | activity at 2 µg/mL [3, 13]: 40.4%

CO/C1=C\C(C)=C\C(C)C(O)C(C)C/C(C)=C/C=C/C(OC)C(C(C)C(O)C(C)C2(O)CC(OC(=O)/C=C/C(=O)O)C(C)C(C(C)C)O2)OC1=O (stereo not drawn) [Bafilomycin C1]
Pf_72h_%Growth_Rep1 [1, 14]: 1.92% | Pf_72h_%Growth_Rep2 [1, 15]: 0.47% | Tg_72h_%Growth_Rep1 [2, 14]: -0.73% | Tg_72h_%Growth_Rep2 [2, 15]: -0.13% | Pf_120h_%Growth_Rep1 ([3]; library screen at 2 μg/mL, 120 h, % growth, replicate 1): 3.53% | Pf_120h_%Growth_Rep2 ([3]; library screen at 2 μg/mL, 120 h, % growth, replicate 2): -2.55%
